Laboratory results as given in PubChem BioAssay (NCI).
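Compound exposure: 48 hours, 5 concentrations, 96-well plates. GI50 is the concentration that inhibits growth by half. TGI is the concentration that stops growth completely.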

Columns and labels:
Assay in all cases: NCI-60 cell line screen, 48 h
786-0 renal = tested on: 786-0 renal
A498 renal = tested on: A498 renal
A549 NSCLC = tested on: A549 NSCLC
ACHN renal = tested on: ACHN renal
BT-549 breast = tested on: BT-549 breast
CAKI-1 renal = tested on: CAKI-1 renal
CCRF-CEM leukemia = tested on: CCRF-CEM leukemia
COLO 205 colon = tested on: COLO 205 colon
DU-145 prostate = tested on: DU-145 prostate
EKVX NSCLC = tested on: EKVX NSCLC
HCC-2998 colon = tested on: HCC-2998 colon
HCT-116 colon = tested on: HCT-116 colon
HCT-15 colon = tested on: HCT-15 colon
HL-60(TB) leukemia = tested on: HL-60(TB) leukemia
HOP-62 NSCLC = tested on: HOP-62 NSCLC
HOP-92 NSCLC = tested on: HOP-92 NSCLC
HS 578T breast = tested on: HS 578T breast
HT29 colon = tested on: HT29 colon
IGROV1 ovarian = tested on: IGROV1 ovarian
K-562 leukemia = tested on: K-562 leukemia
KM12 colon = tested on: KM12 colon
LOX IMVI melanoma = tested on: LOX IMVI melanoma
M14 melanoma = tested on: M14 melanoma
MALME-3M melanoma = tested on: MALME-3M melanoma
MCF7 breast = tested on: MCF7 breast
MDA-MB-231 breast = tested on: MDA-MB-231 breast
MDA-MB-435 = tested on: MDA-MB-435
MDA-MB-468 breast = tested on: MDA-MB-468 breast
MOLT-4 leukemia = tested on: MOLT-4 leukemia
NCI-H226 lung = tested on: NCI-H226 lung
NCI-H23 lung = tested on: NCI-H23 lung
NCI-H460 lung = tested on: NCI-H460 lung
NCI-H522 lung = tested on: NCI-H522 lung
NCI/ADR-RES ovarian = tested on: NCI/ADR-RES ovarian
OVCAR-3 ovarian = tested on: OVCAR-3 ovarian
OVCAR-4 ovarian = tested on: OVCAR-4 ovarian
OVCAR-5 ovarian = tested on: OVCAR-5 ovarian
OVCAR-8 ovarian = tested on: OVCAR-8 ovarian
PC-3 prostate = tested on: PC-3 prostate
RPMI-8226 leukemia = tested on: RPMI-8226 leukemia
RXF 393 renal = tested on: RXF 393 renal
SF-268 CNS = tested on: SF-268 CNS
SF-295 CNS = tested on: SF-295 CNS
SF-539 CNS = tested on: SF-539 CNS
SK-MEL-2 melanoma = tested on: SK-MEL-2 melanoma
SK-MEL-28 melanoma = tested on: SK-MEL-28 melanoma
SK-MEL-5 melanoma = tested on: SK-MEL-5 melanoma
SK-OV-3 ovarian = tested on: SK-OV-3 ovarian
SN12C renal = tested on: SN12C renal
SNB-19 CNS = tested on: SNB-19 CNS
SNB-75 CNS = tested on: SNB-75 CNS
SR leukemia = tested on: SR leukemia
SW-620 colon = tested on: SW-620 colon
T-47D breast = tested on: T-47D breast
TK-10 renal = tested on: TK-10 renal
U251 CNS = tested on: U251 CNS
UACC-257 melanoma = tested on: UACC-257 melanoma
UACC-62 melanoma = tested on: UACC-62 melanoma
UO-31 renal = tested on: UO-31 renal

Structure (SMILES): O=c1[nH]c2ccccc2cc1CSc1ccc(Nc2nccc(-c3ccc(C(F)(F)F)cc3)n2)cc1
- GI50 (786-0 renal): 1.53 µM
- TGI (786-0 renal): 3.29 µM
- GI50 (A498 renal): 1.93 µM
- TGI (A498 renal): 3.84 µM
- GI50 (A549 NSCLC): 2.12 µM
- TGI (A549 NSCLC): 10.1 µM
- GI50 (ACHN renal): 1.85 µM
- TGI (ACHN renal): 10.8 µM
- GI50 (BT-549 breast): 2.66 µM
- TGI (BT-549 breast): 17.1 µM
- GI50 (CAKI-1 renal): 1.66 µM
- TGI (CAKI-1 renal): 7.13 µM
- GI50 (CCRF-CEM leukemia): 3.51 µM
- TGI (CCRF-CEM leukemia): > 100 µM
- GI50 (COLO 205 colon): 9.82 µM
- TGI (COLO 205 colon): 74.1 µM
- GI50 (DU-145 prostate): 13.2 µM
- TGI (DU-145 prostate): > 100 µM
- GI50 (EKVX NSCLC): 3.5 µM
- TGI (EKVX NSCLC): 40.5 µM
- GI50 (HCC-2998 colon): 6.89 µM
- TGI (HCC-2998 colon): > 100 µM
- GI50 (HCT-116 colon): 0.0885 µM
- TGI (HCT-116 colon): 11.6 µM
- GI50 (HCT-15 colon): 2.27 µM
- TGI (HCT-15 colon): 69.7 µM
- GI50 (HL-60(TB) leukemia): > 100 µM
- TGI (HL-60(TB) leukemia): > 100 µM
- GI50 (HOP-62 NSCLC): 1.81 µM
- TGI (HOP-62 NSCLC): 4.45 µM
- GI50 (HOP-92 NSCLC): 2.32 µM
- TGI (HOP-92 NSCLC): 15.2 µM
- GI50 (HS 578T breast): 0.403 µM
- TGI (HS 578T breast): 4.64 µM
- GI50 (HT29 colon): 3.46 µM
- TGI (HT29 colon): > 100 µM
- GI50 (IGROV1 ovarian): 17 µM
- TGI (IGROV1 ovarian): 43.6 µM
- GI50 (K-562 leukemia): 13.9 µM
- TGI (K-562 leukemia): > 100 µM
- GI50 (KM12 colon): 94.3 µM
- TGI (KM12 colon): > 100 µM
- GI50 (LOX IMVI melanoma): 3.63 µM
- TGI (LOX IMVI melanoma): 19.5 µM
- GI50 (M14 melanoma): 16.8 µM
- TGI (M14 melanoma): 61.3 µM
- GI50 (MALME-3M melanoma): 6.51 µM
- TGI (MALME-3M melanoma): 22.6 µM
- GI50 (MCF7 breast): 4.55 µM
- TGI (MCF7 breast): > 100 µM
- GI50 (MDA-MB-231 breast): 1.66 µM
- TGI (MDA-MB-231 breast): 9.04 µM
- GI50 (MDA-MB-435): 11.9 µM
- TGI (MDA-MB-435): 55.4 µM
- GI50 (MDA-MB-468 breast): 3.33 µM
- TGI (MDA-MB-468 breast): 18.2 µM
- GI50 (MOLT-4 leukemia): 4.83 µM
- TGI (MOLT-4 leukemia): > 100 µM
- GI50 (NCI-H226 lung): 1.52 µM
- TGI (NCI-H226 lung): 3.8 µM
- GI50 (NCI-H23 lung): 4 µM
- TGI (NCI-H23 lung): 18.8 µM
- GI50 (NCI-H460 lung): 0.0643 µM
- TGI (NCI-H460 lung): 1.53 µM
- GI50 (NCI-H522 lung): 6.19 µM
- TGI (NCI-H522 lung): 28.7 µM
- GI50 (NCI/ADR-RES ovarian): 1.32 µM
- TGI (NCI/ADR-RES ovarian): 6.21 µM
- GI50 (OVCAR-3 ovarian): 1.38 µM
- TGI (OVCAR-3 ovarian): 3.58 µM
- GI50 (OVCAR-4 ovarian): 1.23 µM
- TGI (OVCAR-4 ovarian): 3.95 µM
- GI50 (OVCAR-5 ovarian): 30.6 µM
- TGI (OVCAR-5 ovarian): > 100 µM
- GI50 (OVCAR-8 ovarian): 1.94 µM
- TGI (OVCAR-8 ovarian): 5.97 µM
- GI50 (PC-3 prostate): 6.77 µM
- TGI (PC-3 prostate): 61.5 µM
- GI50 (RPMI-8226 leukemia): 61.6 µM
- TGI (RPMI-8226 leukemia): > 100 µM
- GI50 (RXF 393 renal): 2.67 µM
- TGI (RXF 393 renal): 13 µM
- GI50 (SF-268 CNS): 2.97 µM
- TGI (SF-268 CNS): 20.9 µM
- GI50 (SF-295 CNS): 1.62 µM
- TGI (SF-295 CNS): 5.72 µM
- GI50 (SF-539 CNS): 2.7 µM
- TGI (SF-539 CNS): 10.9 µM
- GI50 (SK-MEL-2 melanoma): 18.7 µM
- TGI (SK-MEL-2 melanoma): 39.5 µM
- GI50 (SK-MEL-28 melanoma): 20.6 µM
- TGI (SK-MEL-28 melanoma): > 100 µM
- GI50 (SK-MEL-5 melanoma): 15.4 µM
- TGI (SK-MEL-5 melanoma): 45.9 µM
- GI50 (SK-OV-3 ovarian): 15.6 µM
- TGI (SK-OV-3 ovarian): 30.6 µM
- GI50 (SN12C renal): 16.7 µM
- TGI (SN12C renal): 40.8 µM
- GI50 (SNB-19 CNS): 2.32 µM
- TGI (SNB-19 CNS): 10.3 µM
- GI50 (SNB-75 CNS): 0.714 µM
- TGI (SNB-75 CNS): 3.88 µM
- GI50 (SR leukemia): > 100 µM
- TGI (SR leukemia): > 100 µM
- GI50 (SW-620 colon): 5.53 µM
- TGI (SW-620 colon): > 100 µM
- GI50 (T-47D breast): 1.84 µM
- TGI (T-47D breast): 54.3 µM
- GI50 (TK-10 renal): 1.6 µM
- TGI (TK-10 renal): 3.97 µM
- GI50 (U251 CNS): 0.198 µM
- TGI (U251 CNS): 2.61 µM
- GI50 (UACC-257 melanoma): 29.2 µM
- TGI (UACC-257 melanoma): > 100 µM
- GI50 (UACC-62 melanoma): 15.4 µM
- TGI (UACC-62 melanoma): 33 µM
- GI50 (UO-31 renal): 4.82 µM
- TGI (UO-31 renal): 19.6 µM
